Reference: patent US6716628B2, “Chondrogenesis promoters and indolin-2-one derivatives” (Chugai Seiyaku Kabushiki Kaisha, priority 1999, dated 2004)

System: common mouse chondrocyte and adipocyte precursor cell line (CL-1)
Assay: Differentiation of CL-1 into chondrocytes, alcian blue/oil red O double staining
Format: cell-based
Conditions: 10 μmol/L, 7 days after confluency, vs vehicle control
Description: […] (WO98/39414) were cultured in a 4-well chamber slide (Nunc Corp.) to a cell density of 5000/cm^2. The medium used was A-MEM (GIBCO Corp.) containing 100 U/mL of penicillin (Meiji Seika Co., Ltd.), 100 μg/mL of streptomycin (Banyu Pharmaceutical Corp.) and 10% fetal bovine serum (INTERGEN Corp.). When the CL-1 cells reached confluency, compound A was added to a final concentration of 10 μmol/L, with further addition when the medium was exchanged 3 times a week during culturing for 7 days.
A slide was also prepared with ethanol (Junsei Chemical Corp.) to a final concentration of 1% in the medium as a vehicle control. On the 7th day after confluency, the plates were collected, the CL-1 cell layer was double-stained with alcian blue and oil red O, and differentiation to chondrocytes or adipocytes was observed. After culturing was completed, the cell layer was fixed for one hour at room temperature with a 4% paraformaldehyde solution (Wako Pure Chemical Industries) and then washed with 0.1N hydrochloric acid and stained overnight with an aqueous solution (pH 1.0) of 1% alcian blue (EM Science Corp.). […]

CCOC(CN1C(=O)[C@](CC(=O)Nc2ccc(C)cc2)(NC(=O)Nc2ccc(C)cc2)c2ccccc21)OCC [Compound A, (+)-1-(2,2-diethoxyethyl)-3-((4-methylphenyl)aminocarbonylmethyl)-3-(N′-(4-methylphenyl)ureido)indolin-2-one]
differentiation of CL-1 to adipocytes (oil red O): suppressed | differentiation of CL-1 to chondrocytes (alcian blue): clearly promoted
